Source: PubChem BioAssay AID2060506 (Molecular Pharmacology Branch, DTP, NCI, 2025)
pIC50: −log10 of the molar value.

Tested on: 598228-144-R-J1-PDC complex spheroid viability
Assay: Anticancer human tumor 598228-144-R-J1-PDC patient-derived serous endometrial adenocarcinoma cell line growth inhibition [GQUAD]
Conditions: for pIC50: curve of first compound; for viability, T/C: stronger effect = lower value
Procedure, shortened: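 Viability of tumor cells grown as complex spheroids with endothelial and stromal cells, exposed to drug combinations. Top concentration at or near clinical Cmax (else 10 microM), diluted in half-log increments.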

[1] = second compound 0.0316 µM, first compound 0.0316 µM
[2] = second compound 0.0316 µM, first compound 0.1 µM
[3] = second compound 0.0316 µM, first compound 0.316 µM
[4] = second compound 0.0316 µM, first compound 1 µM
[5] = second compound 0.0316 µM, first compound 3.16 µM
[6] = second compound 0.0316 µM, first compound 10 µM
[7] = second compound 0.1 µM, first compound 0.0316 µM
[8] = second compound 0.1 µM, first compound 0.1 µM
[9] = second compound 0.1 µM, first compound 0.316 µM
[10] = second compound 0.1 µM, first compound 1 µM
[11] = second compound 0.1 µM, first compound 3.16 µM
[12] = second compound 0.1 µM, first compound 10 µM
[13] = second compound 0.316 µM, first compound 0.0316 µM
[14] = second compound 0.316 µM, first compound 0.1 µM
[15] = second compound 0.316 µM, first compound 0.316 µM
[16] = second compound 0.316 µM, first compound 1 µM
[17] = second compound 0.316 µM, first compound 3.16 µM
[18] = second compound 0.316 µM, first compound 10 µM
[19] = second compound 1 µM, first compound 0.0316 µM
[20] = second compound 1 µM, first compound 0.1 µM
[21] = second compound 1 µM, first compound 0.316 µM
[22] = second compound 1 µM, first compound 1 µM
[23] = second compound 1 µM, first compound 3.16 µM
[24] = second compound 1 µM, first compound 10 µM
[25] = second compound 3.16 µM, first compound 0.0316 µM
[26] = second compound 3.16 µM, first compound 0.1 µM
[27] = second compound 3.16 µM, first compound 0.316 µM
[28] = second compound 3.16 µM, first compound 1 µM
[29] = second compound 3.16 µM, first compound 3.16 µM
[30] = second compound 3.16 µM, first compound 10 µM
[31] = second compound 10 µM, first compound 0.0316 µM
[32] = second compound 10 µM, first compound 0.1 µM
[33] = second compound 10 µM, first compound 0.316 µM
[34] = second compound 10 µM, first compound 1 µM
[35] = second compound 10 µM, first compound 3.16 µM
[36] = second compound 10 µM, first compound 10 µM
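Further: spheroids exposed to the agents for one week before reading.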
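Wherever viability, T/C is given: percent of vehicle DMSO control viability so 100% = untreated growth.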

`COc1ncnc(C2CC2)c1-c1ncc2cnn(Cc3ccc(-c4nc(C(F)(F)F)cn4C(C)C)cc3)c2n1` + CN(C)c1ccc(Nc2c3ccc(NC(=O)CCN4CCCC4)cc3nc3cc(NC(=O)CCN4CCCC4)ccc23)cc1 was tested, and the pIC50 (second compound 0.0316 µM) was under 5.00, the pIC50 (second compound 0.1 µM) was under 5.00 and the pIC50 (second compound 0.316 µM) was under 5.00. It also gave a pIC50 (second compound 1 µM) of under 5.00, a pIC50 (second compound 3.16 µM) of under 5.00 and a pIC50 (second compound 10 µM) of under 5.00. The viability, T/C [1] was 91.3%, the viability, T/C [2] was 111% and the viability, T/C [3] was 95.9%. For the same compound, the viability, T/C [4] was 92.2%, the viability, T/C [5] was 111% and the viability, T/C [6] was 89.9%. For the same compound, the viability, T/C [7] was 105%, the viability, T/C [8] was 97.9% and the viability, T/C [9] was 101%. The viability, T/C [10] was 85.5%, the viability, T/C [11] was 102% and the viability, T/C [12] was 110%. It also gave a viability, T/C [13] of 112%, a viability, T/C [14] of 115% and a viability, T/C [15] of 99%. The viability, T/C [16] was 88.7%, the viability, T/C [17] was 120% and the viability, T/C [18] was 110%. It also gave a viability, T/C [19] of 112%, a viability, T/C [20] of 90.6% and a viability, T/C [21] of 102%. The viability, T/C [22] was 75.1%, the viability, T/C [23] was 95.2% and the viability, T/C [24] was 90.5%. For the same compound, the viability, T/C [25] was 89.8%, the viability, T/C [26] was 108% and the viability, T/C [27] was 94.3%. For the same compound, the viability, T/C [28] was 105%, the viability, T/C [29] was 90.9% and the viability, T/C [30] was 91.5%. The viability, T/C [31] was 84%, the viability, T/C [32] was 67.8% and the viability, T/C [33] was 72.2%. It also gave a viability, T/C [34] of 77.1%, a viability, T/C [35] of 71.1% and a viability, T/C [36] of 51.5%.

Compound `COc1ncnc(C2CC2)c1-c1ncc2cnn(Cc3ccc(-c4nc(C(F)(F)F)cn4C(C)C)cc3)c2n1` + Cc1[nH]c2ccc(F)cc2c1-c1nc2c3cccnc3c3ncccc3c2[nH]1 has a pIC50 (second compound 0.0316 µM) of under 5.00, a pIC50 (second compound 0.1 µM) of under 5.00 and a pIC50 (second compound 0.316 µM) of under 5.00. The pIC50 (second compound 1 µM) was under 5.00, the pIC50 (second compound 3.16 µM) was over 7.50 and the pIC50 (second compound 10 µM) was under 5.00. The viability, T/C [1] was 130%, the viability, T/C [2] was 124% and the viability, T/C [3] was 125%. It also gave a viability, T/C [4] of 93.1%, a viability, T/C [5] of 119% and a viability, T/C [6] of 112%. The viability, T/C [7] was 116%, the viability, T/C [8] was 94.5% and the viability, T/C [9] was 103%. The viability, T/C [10] was 91.8%, the viability, T/C [11] was 114% and the viability, T/C [12] was 130%. For the same compound, the viability, T/C [13] was 94.3%, the viability, T/C [14] was 93.3% and the viability, T/C [15] was 82%. It also gave a viability, T/C [16] of 93.1%, a viability, T/C [17] of 126% and a viability, T/C [18] of 105%. The viability, T/C [19] was 51.1%, the viability, T/C [20] was 76.1% and the viability, T/C [21] was 74.5%. The viability, T/C [22] was 58%, the viability, T/C [23] was 66.2% and the viability, T/C [24] was 78.3%. The viability, T/C [25] was 38%, the viability, T/C [26] was 31.1% and the viability, T/C [27] was 39.2%. The viability, T/C [28] was 34.2%, the viability, T/C [29] was 41.8% and the viability, T/C [30] was 38.7%. For the same compound, the viability, T/C [31] was 65%, the viability, T/C [32] was 65% and the viability, T/C [33] was 69.6%. For the same compound, the viability, T/C [34] was 57.2%, the viability, T/C [35] was 77.7% and the viability, T/C [36] was 105%.

Work on `COc1ccc([C@@H](O)c2cc(-c3ncnc4cc(N5CCOCC5)ccc34)c(F)cc2Cl)nn1` + CN(C)c1ccc(Nc2c3ccc(NC(=O)CCN4CCCC4)cc3nc3cc(NC(=O)CCN4CCCC4)ccc23)cc1 yielded a pIC50 (second compound 0.0316 µM) of 5.59, a pIC50 (second compound 0.1 µM) of 5.42 and a pIC50 (second compound 0.316 µM) of 5.64. It also gave a pIC50 (second compound 1 µM) of 5.64, a pIC50 (second compound 3.16 µM) of 5.61 and a pIC50 (second compound 10 µM) of 6.10. The viability, T/C [1] was 96.4%, the viability, T/C [2] was 77.6% and the viability, T/C [3] was 73.4%. The viability, T/C [4] was 68.2%, the viability, T/C [5] was 44% and the viability, T/C [6] was 32.5%. For the same compound, the viability, T/C [7] was 121%, the viability, T/C [8] was 94.4% and the viability, T/C [9] was 90.5%. The viability, T/C [10] was 68.4%, the viability, T/C [11] was 52.2% and the viability, T/C [12] was 36.4%. It also gave a viability, T/C [13] of 89.8%, a viability, T/C [14] of 91.1% and a viability, T/C [15] of 79.3%. The viability, T/C [16] was 64.4%, the viability, T/C [17] was 44.9% and the viability, T/C [18] was 29.5%. The viability, T/C [19] was 110%, the viability, T/C [20] was 91.6% and the viability, T/C [21] was 76.3%. For the same compound, the viability, T/C [22] was 53.3%, the viability, T/C [23] was 52% and the viability, T/C [24] was 33.7%. The viability, T/C [25] was 117%, the viability, T/C [26] was 108% and the viability, T/C [27] was 103%. For the same compound, the viability, T/C [28] was 58.8%, the viability, T/C [29] was 53.6% and the viability, T/C [30] was 26.2%. The viability, T/C [31] was 106%, the viability, T/C [32] was 73.6% and the viability, T/C [33] was 76.3%. The viability, T/C [34] was 43.3%, the viability, T/C [35] was 26.4% and the viability, T/C [36] was 20.1%.
